Test results from patent US8426684B2 (Washington State University Research Foundation, priority 2004, dated 2013).
“And” between values parts separate entries of the source, which are not always exact repeats. Equal entries are not always repeated.

Experiments:
[1] = target: T1, menthone: (3R)-(−)-menthol reductase (SEQ ID NO:2) (Mentha x piperita, UniProt Q5CAF4); assay: Substrate specificity of the reductase; assay type: biochemical; settings: 100 μM monoterpenone substrate, 500 μM NADPH, 0.5 μg reductase, pH optimum, overnight incubation
[2] = target: T1, menthone: (3R)-(−)-menthol reductase (SEQ ID NO:2); settings: at saturation under linear reaction conditions
Experimental: Assay mixtures containing 2 ml of 40 mM KH2PO4 at pH 7, with 10 mM β-mercaptoethanol were combined with 500 μM cofactor and concentrations of monoterpene substrate ranging from 2.5 μM to 1 mM, or with 100 μM monoterpene substrate, and concentrations of cofactor ranging from 0.1 μM to 1 mM, and preheated to 31° C. before initiation of the reaction by enzyme addition (0.008 to 1.3 μg protein). The reactions were quenched after 6 to 9 min by addition of 0.5 ml pentane containing camphor as internal standard (6.6 μM) followed by vigorous mixing and cooling on ice; quantitation of products in the pentane extract was achieved by capillary-GC using the conditions described above with peak area quantification using the internal standard for normalization. […] Kinetic constants, representing the average of at least two independent experiments, were determined by nonlinear regression analysis of Michaelis-Menten plots using Enzyme Kinetics, v 1.11 (Trinity Software, Plymouth, N.H.). The values reported are the means±standard error.

[3] = target: T1, menthone: (3R)-(−)-menthol reductase (SEQ ID NO:2); assay: In vitro demonstration of menthone reductase activity (product analysis by GC, GC-MS); assay type: biochemical; settings: partially purified recombinant protein
Experimental: Bacteria harboring the pSBET-reductase plasmid or the pET-reductase plasmid were grown in 5 ml cultures of Luria-Bertani (LB) media to an OD600 of 0.8-1.0, at which time the cultures were cooled to 10° C., isopropyl-β-D-thiogalactopyranoside was added to 0.25 mM, and growth was continued for 12-18 h at 10° C. with shaking at 220 rpm. Cells were pelleted by centrifugation for 25 min at 2500 g and 4° C., and then resuspended in 1 ml resuspension buffer (50 mM Mopso, pH 7, with 10% (v/v) glycerol, 10% (w/v) sorbitol, and 10 mM […]) containing 0.4 mg/ml lysozyme. Following incubation on ice for 30 min, the extract was sonicated for 10 sec with a Virtis sonicator using a microtip probe at medium power. Cell debris was pelleted by centrifugation at 27,000 g at 4° C. for 30 min, and the supernatant, containing the operationally soluble reductase, was used for initial characterization.
Following incubation with gentle shaking at 31° C. for 12 h, 0.5 ml of pentane was added and the mixture was vigorously mixed to extract the monoterpene products which were analyzed by GC and GC-MS as described above. […] Following 15 h of shaking (250 rpm) at 15-20° C., these cultures were transferred to 0.5 L round-bottom flasks, to which 6.6 μmol of (+)-camphor was added as an internal standard, and the mixture was steam distilled and the distillate analyzed as described above.

[4] = substrate: CC(C)[C@@H]1CC[C@@H](C)CC1=O; assay: purified protein, by the assay type; settings: other: monoterpene substrate, NADPH as cofactor, reductase expressed from pSBET, pH 7, 31° C., means±standard error
[5] = substrate: CC(C)[C@H]1CC[C@@H](C)CC1=O; assay: purified protein, by the assay type; settings: other: monoterpene substrate, NADPH as cofactor, reductase expressed from pSBET, pH 7, 31° C., means±standard error
[6] = target: T1, menthone: (3R)-(−)-menthol reductase (SEQ ID NO:2); assay: pH optimum of the reductase; assay type: biochemical; settings: 25 μM menthone, 500 μM NADPH, 0.5 μg protein, 6 min at 31° C.
[7] = from (+)-isomenthone in the presence of NADPH
[8] = from (−)-menthone in the presence of NADPH

With `C=C(C)[C@H]1CC[C@@H](C)CC1=O` (relative stereo) [(+)-cis-isopulegone] the “reduction of alternate substrate to the corresponding monoterpenols” value (shortened to “reduction of alternate substrate”) [1] was “only able to detectably reduce (+)-menthone”.

With `C=C(C)C1CC=C(C)C(=O)C1` (single isomer, unassigned; (-)) [(−)-carvone] the “reduction of alternate substrate” value [1] was “only able to detectably reduce (+)-menthone”.

In the case of `C=C(C)C1CCC(C)=CC1=O` (single isomer, unassigned; (-)) [(−)-isopiperitenone], the “reduction of alternate substrate” value [1] is reported as “only able to detectably reduce (+)-menthone”.

For `CC(C)=C1CC[C@@H](C)CC1=O` [(+)-pulegone], the “reduction of alternate substrate” value [1] was “only able to detectably reduce (+)-menthone”.

In the case of `NC(=O)C1=CN([C@@H]2O[C@H](COP(=O)(O)OP(=O)(O)OC[C@H]3O[C@@H](n4cnc5c(N)ncnc54)[C@H](O)[C@@H]3O)[C@@H](O)[C@H]2O)C=CC1` [NADH], the “turnover with NADH as cofactor compared with NADPH” value [2] is reported as “less than 20%”.

With `CC(C)[C@H]1CC[C@@H](C)CC1=O` [isomenthone, (+)-isomenthone] the “product share (3R)-(+)-neoisomenthol” value [3, 7] was 87% and the “product share (3S)-(+)-isomenthol” value [3, 7] was 13%.

In the case of `CC(C)[C@@H]1CC[C@@H](C)CC1=O` [menthone, (−)-menthone], the “product share (3R)-(−)-menthol” value [3, 8] is reported as 95% and the “product share (3S)-(+)-neomenthol” value [3, 8] is reported as 5%.

With (+)-menthone the “reduction of alternate substrate” value [1] was “detectably reduce”.

B1: menthone: (3R)-(−)-menthol reductase (SEQ ID NO:2) (Mentha x piperita) (protein)
chain: MADTFTQRYALVTGANKGIGFEICRQLASKGMKVILASRNEKRGIEARERLLKESRSISDDDVVFHQLDVADPASAVAVAHFIETKFGRLDILVNNAGFTGVAIEGDISVYQECLEANIIAAQGGQAHPFHPKTTGRLIETLEGSKECIETNYYGTKRITETLIPLLQKSDSPTIVNVSSTFSTLLLQPNEWAKGVFSSNSLNEGKVEEVLHEFLKDFIDGKLQQNHWPPNFAAYKVSKAAVNAYTRIIARKYPSFCINSVCPGFVRTDICYNLGVLSEAEGAEAPVKLALLPDGGPSGSFFSREEALSLY
For B1, the Km [4] was 3.0 ± 0.6 µM, the kcat [4] was 0.6 s⁻¹ and the Km [5] was 41 ± 5 µM.

B2: reductase (SEQ ID NO:2): recombinant peppermint menthone: (3R)-(−)-menthol reductase, 311 residue protein encoded by cDNA SEQ ID NO:1, expressed in E. coli (protein)
chain: B1 chain
modifications: Mentha Piperita
In the case of B2, the “pH of half maximal activities” value [6] is reported as 4.5 and 8.5 and the pH optimum [6] is reported as 7.0.
